Results published in patent US10544144B2, “Fused pyrimidine piperidine cyclic derivative, preparation process and use thereof” (SHANGHAI ALLIST PHARMACEUTICAL AND MEDICAL TECHNOLOGY …, priority 2016, dated 2020).
Where two headings read alike, the source gives them in different places.

Key:
[1] = system: Human Acute Myelogenous Leukemia Cell KG-1α (FGFR1 Insertion Mutation); assay: MTT proliferation inhibition, KG-1α cells; assay type: cell-based; settings: 72 hours drug exposure
Procedure: (§1) The pharmacodynamic action of the compound of the present invention in terms of inhibiting the proliferation of cancer cells may be determined by conventional methods. One preferable evaluation method is MTT (Thiazolyl Blue) cell activity assay, in which the change in optical absorption value generated after the drug has acted on the cancer cells is measured, and the inhibition ratio of a drug against the proliferation of cancer cells is calculated. Inhibition ratio (%)=[(blank control OD−inhibitor OD)/blank control OD]×100%
(§2) Blank control OD: the OD value of the well of normally grew cells without the action of a drug.
(§3) Inhibitor OD: the OD value of the well of cells with the action of the added compounds to be screened.
(§4) The median inhibitory concentration (IC50) value is obtained by the software GraphPad Prism 5.0 by the 4-parameter logistic curve fit calculation. Each experiment is repeated three times, and the average IC50 value for three experiments is used as the final index for the inhibitory ability.
(§5) Proliferation Inhibition Effect on Human Acute Myelogenous Leukemia Cell KG-1α (FGFR1 Insertion Mutation), Human Gastric Cancer Cell KATO-3 (FGFR2 Amplification), Human Multiple Myeloma Cell KMS-11 (FGFR3 Y373C Mutation)
(§6) Cells in the logarithmic phase were inoculated to 96-well culture plates (cell density: 3000/well for KATO-3, 9000/well for KG-1α, 3000/well for KMS-11, cell suspension: 180 μl/well), and cultured at 37° C. under 5% CO2 for 24 hours. After the culturing, the cells adhered to the well walls. Each of compounds was dissolved in DMSO in advance to formulate a 10 mM stock solution. Upon testing, the stock solution was diluted with complete medium to 10 times the target concentration in another 96-cell plate. And then the compound was added at 20 μl/cell in the 96-well plate in which the cells were inoculated, i.e. the target concentration could be reached. The well for each concentration was triplicated, and the blank control was established. Cells continued to be cultured at 37° C. under 5% CO2 for 72 hours. After the drug acted for 72 hours, 20 μl of Thiazolyl Blue, i.e., MTT was added to each of wells. MTT was dissolved in a phosphate buffer solution free of Ca and Mg ions (D-PBSA) to formulate a 0.5% stock solution in advance. The stock solution was filtered and sterilized. Cells continued to be cultured at 37° C. under 5% CO2 for 4 hours. After 4 hours from the addition of MTT, 100 μl of 14% dimethylformamide-sodium dodecyl sulfate (DMF-SDS) was added to and dissolved in each of wells. Cells were cultured at 37° C. for 3-4 hours, and detected for the light density value (OD) at a wavelength of 570 nm. The inhibition rate was calculated based on the collected data.

[2] = system: Human Multiple Myeloma Cell KMS-11 (FGFR3 Y373C Mutation); assay: MTT proliferation inhibition, KMS-11 cells; assay type: cell-based; settings: 72 hours drug exposure
Procedure: as §1, §2, §3
The median inhibitory concentration (IC50) value is obtained by the software GraphPad Prism 5.0 by the 4-parameter logistic curve fit calculation. […]
Cells in the logarithmic phase were inoculated to 96-well culture plates (cell density: 3000/well for KATO-3, 9000/well for KG-1α, 3000/well for KMS-11, cell suspension: 180 μl/well), and cultured at 37° C. under 5% CO2 for 24 hours. […] Cells were cultured at 37° C. for 3-4 hours, and detected for the light density value (OD) at a wavelength of 570 nm. The inhibition rate was calculated based on the collected data.

[3] = system: Human Gastric Cancer Cell KATO-3 (FGFR2 Amplification); assay: MTT proliferation inhibition, KATO-3 cells; assay type: cell-based
Text: The pharmacodynamic action of the compound of the present invention in terms of inhibiting the proliferation of cancer cells may be determined by conventional methods. […] Inhibition ratio (%)=[(blank control OD−inhibitor OD)/blank control OD]×100%
as §2, §3, §4, §5, §6

[4] = system: subcutaneously transplanted tumors of human bladder cancer RT112/84; assay: Growth of subcutaneously transplanted tumors in RT112/84-bearing nude mice; assay type: in vivo, BALB/c nude mice; settings: p.o., 14 days, I-5 15 or 25 mg/kg QD, I-13 50 mg/kg BID, BGJ398 15 mg/kg QD, FIG. 1
Text: The pharmacodynamic action of the compound of the present invention in terms of inhibiting the growth of transplantation tumor in animal may be assayed by conventional methods. One preferable evaluation method involves the inhibitory effect on the growth of subcutaneously transplantation tumor of human bladder cancer RT112/84-bearing nude mice. The experimental method is as follows: 5×10^6 human bladder cancer RT112/84 cells are inoculated to nude mice subcutaneously at the right side of the back thereof, and each mouse is inoculated with 0.1 ml. After the tumors grow to 100-150 mm^3 on average, the animals are divided into groups randomly according to the tumor size and the animal weight. […] During the entire experimental process, the animal weight and the tumor size are measured twice per week, so as to observe whether or not the toxic reaction occurs.
The tumor volume is calculated as follows: Tumor volume (mm^3)=0.5×(Tumor major diameter×Tumor minor diameter^2) Body weight change rate (%)=measured body weight/body weight before administration×100%. […]
Cell cultivation: RT112/84 cells were placed in a MEM medium containing 10% fetal bovine serum (FBS) and 1% non-essential amino acid (NEAA), and cultivated in a temperature-constant incubator containing 5% CO2 at 37° C. The cells in exponential growth phase were collected and counted for inoculation. […]

[5] = KATO3, MTT, 72 hours drug exposure, KATO-3 cells, read-out: KATo-3 (FGFR2 amplification) IC50
[6] = KATO3, 72 h, read-out: KATo-3 (FGFR2 amplification) IC50 (nM)

IC50 ([1]; Homo sapiens) | IC50 [3, 5] | Compound | IC50 [3, 6] | other results
18 nM | 6 nM | CCN1CCN(c2ccc(Nc3ncc4c(n3)CCN(c3c(Cl)c(OC)cc(OC)c3Cl)C4)cc2)C(=O)C1 [Compound I-7] | – | –
2 nM | 3 nM | COc1cc(OC)c(Cl)c(N2CCc3nc(Nc4ccc(N5CCC(N(C)C)CC5)cc4)ncc3C2)c1F [Compound I-15, 6-(2-fluoro-6-chloro-3,5-dimethoxyphenyl)-N-(4-(4-(dimethylamino)piperidin-1-yl)phenyl)-5,6,7,8-tetrahydropyrido[4,3-d]pyrimidin-2-amine] | – | –
8 nM | 4 nM | CCN1CCN(c2ccc(Nc3ncc4c(n3)CCN(c3cc(C(=O)NC)cc(OC)c3Cl)C4)cn2)CC1 [Compound I-11, 4-chloro-3-(2-(6-(4-ethylpiperazin-1-yl)pyridin-3-ylamino)-7,8dihydropyrido[4,3-d]pyrimidin-6(5H)-yl)-5-methoxy-N-methylbenzamide] | – | –
15 nM | 23 nM | COc1cc(OC)c(Cl)c(N2CCc3nc(Nc4ccc(N5CCN(CCO)CC5)nc4)ncc3C2)c1Cl [Compound I-14, 2-(4-(5-(6-(2,6-dichloro-3,5-dimethoxyphenyl)-5,6,7,8-tetrahydropyrido[4,3-d]pyrimidin-2-ylamino)pyridin-2-yl)piperazin-1-yl)ethanol] | – | –
6 nM | 3 nM | CNC(=O)c1cc(OC)c(Cl)c(N2CCc3nc(Nc4ccc(N5CCC(N(C)C)CC5)cc4)ncc3C2)c1 [Compound I-13] | – | –
5 nM | 4 nM | CCN1CCN(c2ccc(Nc3ncc4c(n3)CCN(c3c(Cl)c(OC)cc(OC)c3Cl)C4)cn2)CC1 [Compound I-8, 6-(2,6-dichloro-3,5-dimethoxyphenyl)-N-(6-(4-ethylpiperazin-1-yl)pyridin-3-yl)-5,6,7,8-tetrahydropyrido[4,3-d]pyrimidin-2-amine] | – | –
24 nM | 7 nM | CCN1CCN(c2ccc(Nc3ncc4c(n3)CCN(c3c(Cl)c(OC)cc(OC)c3Cl)C4)cc2OC)CC1 [Compound I-10, 6-(2,6-dichloro-3,5-dimethoxyphenyl)-N-(4-(4-ethylpiperazin-1-yl)-3-methoxyphenyl)-5,6,7,8-tetrahydropyrido[4,3-d]pyrimidin-2-amine] | – | –
12 nM | 21 nM | COc1cc(OC)c(Cl)c(N2CCc3nc(Nc4ccc(N5CCC(N(C)C)CC5)nc4)ncc3C2)c1Cl [Compound I-9, 6-(2,6-dichloro-3,5-dimethoxyphenyl)-N-(6-(4-(dimethylamino)piperidin-1-yl)pyridin-3-yl)-5,6,7,8-tetrahydropyrido[4,3-d]pyrimidin-2-amine] | – | IC50 ([2]; Homo sapiens): 200 nM

The remaining lines, values behind:

Compound | IC50 ([1]; Homo sapiens) | IC50 [3, 5] | IC50 [3, 6] | other results
AZD4547 [reference compound] | – | – | – | IC50 [1]: 7 nM; IC50 [2]: 200 nM
COc1cc(OC)c(Cl)c(N2CCc3nc(Nc4ccc(N5CCN(C6CC6)CC5)cc4)ncc3C2)c1Cl [Compound I-6, 6-(2,6-dichloro-3,5-dimethoxyphenyl)-N-(4-(4-cyclopropylpiperazin-1-yl)phenyl)-5,6,7,8-tetrahydropyrido[4,3-d]pyrimidin-2-amine] | 3 nM | – | 11 nM | –
COc1cc(OC)c(Cl)c(N2CCc3nc(Nc4ccc(N5CCN(CC(F)(F)F)CC5)cc4)ncc3C2)c1Cl [Compound I-2, 6-(2,6-dichloro-3,5-dimethoxyphenyl)-N-(4-(4-(2,2,2-trifluoroethyl)piperazin-1-yl)phenyl)-5,6,7,8-tetrahydropyrido[4,3-d]pyrimidin-2-amine] | 7 nM | – | 45 nM | –
COc1cc(OC)c(Cl)c(N2CCc3nc(Nc4ccc(N5CCN(CCN(C)C)CC5)cc4)ncc3C2)c1Cl [Compound I-4, 6-(2,6-dichloro-3,5-dimethoxyphenyl)-N-(4-(4-(2-(dimethylamino)ethyl)piperazin-1-yl)phenyl)-5,6,7,8-tetrahydropyrido[4,3-d]pyrimidin-2-amine] | 2 nM | – | 30 nM | –
COc1cc(OC)c(Cl)c(N2CCc3nc(Nc4ccc(N5CCN(CCO)CC5)cc4)ncc3C2)c1Cl [Compound I-3, 2-(4-(4-(6-(2,6-dichloro-3,5-dimethoxyphenyl)-5,6,7,8-tetrahydropyrido[4,3-d]pyrimidin-2-ylamino)phenyl)piperazin-1-yl)ethanol] | 1 nM | – | 8 nM | –
COc1cc(OC)c(Cl)c(N2CCc3nc(Nc4ccc(N5CCC(N(C)C)CC5)cc4)ncc3C2)c1Cl [Compound I-5, 6-(2,6-dichloro-3,5-dimethoxyphenyl)-N-(4-(4-(dimethylamino)piperidin-1-yl)phenyl)-5,6,7,8-tetrahydropyrido[4,3-d]pyrimidin-2-amine] | 2 nM | – | 4 nM | inhibition effect on the growth of subcutaneously transplanted tumors (tumor volume) [4]: better inhibition effect than BGJ398
CCN1CCN(c2ccc(Nc3ncc4c(n3)CCN(c3c(Cl)c(OC)cc(OC)c3Cl)C4)cc2)CC1 [Compound I-1, 6-(2,6-dichloro-3,5-dimethoxyphenyl)-N-(4-(4-ethylpiperazin-1-yl)phenyl)-5,6,7,8-tetrahydropyrido[4,3-d]pyrimidin-2-amine] | 5 nM | 12 nM | – | –
